Reference: patent US20170296490A1, “USE OF LIGNIN-DERIVED ALDEHYDES AS ANTIFUNGAL AGENTS” (Wisconsin Alumni Research Foundation, priority 2016, published 2017)

Key:
Alternaria solani = assay: Colony growth inhibition of Alternaria solani (FIG. 1); assay type: cell-based; settings: for growth of the colony: A. solani, 250, 500 and 1,000 μg/mL vs untreated control (DMSO), dose-dependent; for inhibition of Alternaria solani (summary statement): no concentration stated
Experimental: FIG. 1 is a series of photographs illustrating dose-dependent inhibition of Alternaria solani by sinapaldehyde (top row) and coniferyl aldehyde (bottom row) at concentrations of 250 μg/mL, 500 μg/mL, and 1,000 μg/mL.
Without aggressive early control of the pathogen, early blight causes significant yield reductions.

Alternaria alternata = assay: Colony growth inhibition of Alternaria alternata (FIGS. 2, 3); assay type: cell-based; settings: for colony size: end of six days; for inhibition of Alternaria alternata (summary statement): no concentration stated
Experimental: FIG. 2 is a graph depicting dose-dependent inhibition of Alternaria alternata by sinapyl aldehyde. Control=[…]. 250 μg/mL=∘. 500 μg/mL=▾. 1,000 μg/mL=Δ.
FIG. 3 is a graph depicting dose-dependent inhibition of Alternaria alternata by coniferyl aldehyde. Control=[…]. 250 μg/mL=∘. 500 μg/mL=▾. 1,000 μg/mL=Δ.
Similar to FIG. 1, FIG. 2 is a graph depicting dose-dependent inhibition of Alternaria alternata by sinapyl aldehyde. Time in days is on the X-axis; colony size in cm is on the Y-axis. […] A. alternata has also been implicated as a causative agent of asthma in humans. Salo et al. (October 2006) “Exposure to Alternaria alternata in US homes is associated with asthma symptoms” J Allergy Clin Immunol.; 118(4): 892-898.
(Control=[…]. 250 μg/mL=∘. 500 μg/mL=▾. 1,000 μg/mL=Δ.)

S. sclerotiorum = assay: Colony growth inhibition of S. sclerotiorum (FIG. 4); assay type: cell-based, Sclerotinia sclerotiorum; settings: for growth of the colony: S. sclerotiorum, 250, 500 and 1,000 μg/mL vs untreated control (DMSO), dose-dependent; for inhibition of Sclerotinia sclerotiorium (summary statement): no concentration stated
Experimental: FIG. 4 is a series of photographs illustrating dose-dependent inhibition of Scelerotinia sclerotiorium by sinapyl aldehyde (top row) and coniferyl aldehyde (bottom row) at concentrations of 250 μg/mL, 500 μg/mL, and 1,000 μg/mL.
FIG. 4 is a series of photographs analogous to FIG. 1, but showing the ability of sinapldehyde and coniferyl aldehyde to attenuate the grown of S. sclerotiorum. […] White mold is particularly significant economically because it affects a wide range of hosts. It is also capable of infecting plants at any stage of growth makes. S. sclerotiorum, can survive on infected tissues, in the soil, and on living plants. It affects young seedlings, mature plants, and fruit in the field or in storage. […] It can also propagate throughout a harvested crop if conditions are not monitored carefully. It infects many extensively planted crops, including soybeans, green beans, sunflowers, canola, and peanuts.

Saccharomyces cerevisiae = assay: Growth inhibition of the yeast S. cerevisiae (FIG. 5); assay type: cell-based; settings: for inhibition of S. cerevisiae: at 500 μg/mL; for inhibition of Saccharomyces cerevisiae (summary statement): no concentration stated
Description: FIG. 5 is a graph depicting dose-dependent inhibition of the yeast S. cerevisiae by sinapyl aldehyde ([…]), coniferyl aldehyde (∘), and p-hydroxycoumaryl aldehyde (▾).
FIG. 5 depicts dose-dependent inhibition of S. cerevisiae by sinapyl aldehyde ([…]), coniferyl aldehyde (∘), and p-hydroxycoumaryl aldehyde (▾).

Candida albicans = assay: Growth inhibition of C. albicans (FIG. 6); assay type: cell-based; settings: for inhibition of Candida albicans (summary statement): no concentration stated; for inhibitory activity against C. albicans: at a concentration of 1000 μg/mL
Description: FIG. 6 is a graph depicting dose-dependent inhibition of the yeast C. albicans by sinapyl aldehyde ([…]), coniferyl aldehyde (∘), and p-hydroxycoumaryl aldehyde (▾).
FIG. 6 depicts dose-dependent inhibition of C. albicans by sinapyl aldehyde ([…]), coniferyl aldehyde (∘), and p-hydroxycoumaryl aldehyde (▾). Here, the inhibition was not as pronounced as against S. cerevisiae.

Row | SMILES | growth of the colony (Alternaria solani) | inhibition of Alternaria solani (summary statement) (Alternaria solani) | colony size (Alternaria alternata; A. alternata, 250 μg/mL) | colony size (Alternaria alternata; A. alternata, 500 μg/mL) | colony size (Alternaria alternata; A. alternata, 1,000 μg/mL) | inhibition of Alternaria alternata (summary statement) (Alternaria alternata) | growth of the colony (S. sclerotiorum) | inhibition of Sclerotinia sclerotiorium (summary statement) (S. sclerotiorum) | inhibition of S. cerevisiae (Saccharomyces cerevisiae) | inhibition of Saccharomyces cerevisiae (summary statement) (Saccharomyces cerevisiae) | inhibition of Candida albicans (summary statement) (Candida albicans) | inhibitory activity against C. albicans (Candida albicans) | growth rates and colony size (Alternaria alternata; A. alternata, 250, 500 and 1,000 μg/mL treatment groups, six days)
1 | COc1cc(/C=C/C=O)cc(OC)c1O [sinapyl aldehyde] | very significantly inhibited | show inhibition | smaller than the untreated colony | smaller still | the smallest of those tested | show inhibition | very significantly inhibited | show inhibition | very significant inhibition | show inhibition | show inhibition |  | 
2 | O=C/C=C/c1ccc(O)cc1 [p-hydroxycoumaryl aldehyde] |  | show inhibition |  |  |  | show inhibition |  | show inhibition | very significant inhibition | show inhibition | show inhibition | very signification inhibitory activity | 
3 | COc1cc(/C=C/C=O)ccc1O [coniferyl aldehyde] | very significantly inhibited | show inhibition |  |  |  | show inhibition | very significantly inhibited | show inhibition | very significant inhibition | show inhibition | show inhibition | very signification inhibitory activity | progressively attenuated growth rates and smaller colony size
